# Measurements reported in patent US4458077A, “Heterocyclic anti-ulcer agents” (American Home Products Corporation, priority 1982, dated 1984).
# Like-named read-outs stand apart in the source and are kept apart here.
# Assays:
# [1] = background, cited from earlier work
# [2] = target: H2 histamine receptors (Cavia porcellus, UniProt P47747); assay: guinea pig heart atrium test: inhibition of histamine-induced positive chronotropic response (H2 antagonist activity)
# Description: (§1) The results for some of the compounds of the invention in these procedures is presented at the end of the following examples, which will serve to illustrate the present invention.
# The guniea pig heart atrium test is carried out as follows:
# A guinea pig right atrium is suspended at 1 g. tension (isometric) in a thermostatically controlled (32° C.) tissue bath (10 ml) containing oxygenated (95% O2; 5% CO2) Krebs-Haenseleit buffer (pH 7.4). The tissue is allowed to stabilize over 1 hour. Individual contractions are recorded with a force-displacement transducer through a strain gauge coupler. A control dose-response curve to histamine in the above described tissue bath is obtained after which the tissue is washed 3 times and allowed to re-equilibrate to basal rate. The test compound is added to the tissue bath at the desired final concentration. Thirty minutes after addition of the compound, a fresh histamine dose response curve is again obtained. Then the response to histamine in the presence of antagonist is compared to the histamine control response. This procedure is repeated, using fresh tissues, for each concentration of antagonist tested. The result is expressed as the apparent dissociation constant (pA2) of the H2 antagonist as determined by standard procedures. Cimetidine is used as the standard for this test.
# [3] = test system: gastric acid secretion; assay: gastric secretion in the pylorus-ligated rat (modified Shay procedure); format: in vivo; details: 32 mg/kg, interduodenally (i.d.), pylorus-ligated male Charles River rats, 4 hours after ligation
# Description: as §1
# The procedure for testing gastric secretion in the rat, a modification of the procedure of Shay et al., Gastroenterology, 26, 906-13 (1954) is carried out as follows:
# Male Charles River rats weighing 200-300 grams are deprived of food but not water for 24 hours prior to use. Water is, however, withheld during the experiment. The rats are weighed, anesthetized, and the pylorus ligated according to the method of Shay et al. Treatment or vehicle control is then administered interduodenally (i.d.). Rats are housed 2/cage and sacrificed with CO2 four hours after ligation. The stomachs are removed, rinsed, and contents emptied into a graduated centrifuge tube. The tubes are centrifuged for 20 minutes at 2,000 RPM and the volume of gastric juice recorded. Any samples obviously contamined by feces, food or hemolysis are eliminated. An aliquot of each is frozen for later analysis of Na^+, K^+ and Cl^- concentration. The pH is measured and 1 ml. of gastric juice is titrated with 0.1N NaOH to a pH of 7.0-7.4. Titrable acid output is calculated in microequivalents and the percent inhibition of acid output is calculated as follows: [formula]
# [4] = apparent dissociation constant (pA2) vs histamine, guinea pig right atrium, 32° C, pH 7.4, 30 min after compound, three experiments, read-out: pA2 Value (converted)
# Chain of H2 histamine receptors (P47747 whole entry): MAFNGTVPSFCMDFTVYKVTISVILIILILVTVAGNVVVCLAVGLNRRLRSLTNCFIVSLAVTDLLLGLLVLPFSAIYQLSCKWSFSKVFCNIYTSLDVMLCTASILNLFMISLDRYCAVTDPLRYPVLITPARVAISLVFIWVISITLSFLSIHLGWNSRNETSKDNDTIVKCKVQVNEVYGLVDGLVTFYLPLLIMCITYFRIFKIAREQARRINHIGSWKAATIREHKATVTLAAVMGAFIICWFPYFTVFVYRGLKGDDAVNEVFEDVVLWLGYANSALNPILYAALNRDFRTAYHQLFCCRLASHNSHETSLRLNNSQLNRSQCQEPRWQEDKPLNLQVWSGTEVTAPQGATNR
compound,measurement,setting,value
CN/C(=N/CCSCc1nc[nH]c1C)NC#N [cimetidine],confusional states (limitation),[1]; elderly patients,a tendency to cause confusional states in elderly patients
same,anti-androgenic activity (limitation),[1]; patients,anti-androgenic activity
"CNC(=C[N+](=O)[O-])NOCCCc1csc(NC(=N)N)n1 [Example 5, [4-[3-[[[1-(methylamino)-2-nitroethenyl]amino]oxy]propyl]-2-thiazolyl]guanidine]",Kb,"[2]; printed in pA2 column, footnote *: KB value, result of only one experiment, guinea pig right atrium vs histamine, read-out: KB value",0.108 µM
same,% Inhibition (of acid output),[3],72%
"CNC(=C[N+](=O)[O-])NOCCOCc1ccc(CN(C)C)o1 [Example 2, N-[2-[[5-[(dimethylamino)methyl]-2-furanyl]methoxy]ethoxy]-N'-methyl-2-nitro-1,1-ethenediamine, ethanedioate]",Kb,[2]; [4],9.12 µM
"CNC(=S)NOCCOCc1ccc(CN(C)C)o1 [Example 4, N-[2-[[5-[(dimethylamino)methyl]-2-furanyl]methoxy]ethoxy]-N'-methyl-thiourea, 1/2 hydrate]",Kb,[2]; [4],1.26 µM
